Measurements as given in patent EP2826473A1, “NOVEL USE OF PATCHOULOL” (Chengdu Huasun Group Inc., Ltd., priority 2012, dated 2013).
≈ marks a conversion by molar mass, not a printed value. Counter-ions that a name gives are not always drawn. Like-named read-outs stand apart in the source and are kept apart here. Each block holds one molecule with its values, some of them ahead of it.

How the values were obtained:
Format in all cases: cell-based
[1] = test system: Enterococcus faecium; assay: in vitro bacteriostatic activity, agar dilution MIC
[2] = test system: Staphylococcus aureus MSSA; assay: as above; settings: Staphylococcus aureus, MSSA
[3] = test system: Staphylococcus epidermidis MSSE; assay: as above
[4] = test system: Staphylococcus epidermidis ATCC 12228; assay: in vitro bacteriostatic activity, agar dilution MIC, quality control strain; settings: ATCC12228
[5] = test system: Enterococcus faecalis; assay: in vitro bacteriostatic activity, agar dilution MIC
[6] = test system: Streptococcus pneumoniae; assay: as above
[7] = Enterococcus faecium, ATCC33186, Enterococcus faecium ATCC 33186, read-out: MIC
[8] = Enterococcus faecium, Enterococcus faecium 12-7, read-out: MIC
[9] = Enterococcus faecium, Enterococcus faecium 12-8, read-out: MIC
[10] = Enterococcus faecium, Enterococcus faecium 12-9, read-out: MIC
[11] = Enterococcus faecium, Enterococcus faecium 12-10, read-out: MIC
[12] = Enterococcus faecium, Enterococcus faecium 12-11, read-out: MIC
[13] = Enterococcus faecium, Enterococcus faecium 12-12, read-out: MIC
[14] = Enterococcus faecium, Enterococcus faecium 12-13, read-out: MIC
[15] = Enterococcus faecium, Enterococcus faecium 12-14, read-out: MIC
[16] = Enterococcus faecium, Enterococcus faecium 12-15, read-out: MIC
[17] = Enterococcus faecium, Enterococcus faecium 12-16, read-out: MIC
[18] = Staphylococcus aureus MSSA 12-11, read-out: MIC
[19] = Staphylococcus aureus MSSA 12-13, read-out: MIC
[20] = Staphylococcus aureus MSSA 12-14, read-out: MIC
[21] = Staphylococcus aureus MSSA 12-15
[22] = Staphylococcus aureus MSSA 12-16, read-out: MIC
[23] = Staphylococcus aureus MSSA 12-17, read-out: MIC
[24] = Staphylococcus aureus MSSA 12-18
[25] = Staphylococcus aureus MSSA 12-19, read-out: MIC
[26] = Staphylococcus aureus MSSA 12-20, read-out: MIC
[27] = Staphylococcus aureus MSSA 12-21
[28] = Staphylococcus epidermidis, Staphylococcus epidermidis MSSE 12-12, read-out: MIC
[29] = Staphylococcus epidermidis, Staphylococcus epidermidis MSSE 12-13, read-out: MIC
[30] = Staphylococcus epidermidis, Staphylococcus epidermidis MSSE 12-14, read-out: MIC
[31] = Staphylococcus epidermidis, Staphylococcus epidermidis MSSE 12-15, read-out: MIC
[32] = Staphylococcus epidermidis, Staphylococcus epidermidis MSSE 12-16, read-out: MIC
[33] = Staphylococcus epidermidis, Staphylococcus epidermidis MSSE 12-17, read-out: MIC
[34] = Staphylococcus epidermidis, Staphylococcus epidermidis MSSE 12-18, read-out: MIC
[35] = Staphylococcus epidermidis, Staphylococcus epidermidis MSSE 12-19, read-out: MIC
[36] = Enterococcus faecalis, ATCC29212, Enterococcus faecalis ATCC 29212, read-out: MIC
[37] = Enterococcus faecalis, ATCC51299, Enterococcus faecalis (high endurance) ATCC 51299, read-out: MIC
[38] = Enterococcus faecalis, Enterococcus faecalis 12-11, read-out: MIC
[39] = Enterococcus faecalis, Enterococcus faecalis 12-12, read-out: MIC
[40] = Enterococcus faecalis, Enterococcus faecalis 12-13, read-out: MIC
[41] = Enterococcus faecalis, Enterococcus faecalis 12-14, read-out: MIC
[42] = Enterococcus faecalis, Enterococcus faecalis 12-17, read-out: MIC
[43] = Enterococcus faecalis, Enterococcus faecalis 12-18, read-out: MIC
[44] = Enterococcus faecalis, Enterococcus faecalis 12-19, read-out: MIC
[45] = Enterococcus faecalis, Enterococcus faecalis 12-20, read-out: MIC
[46] = Enterococcus faecalis, Enterococcus faecalis 12-21, read-out: MIC
[47] = Enterococcus faecalis, Enterococcus faecalis 12-22, read-out: MIC

SMILES: CC[C@H]1OC(=O)[C@H](C)[C@@H](O[C@H]2C[C@@](C)(OC)[C@@H](O)[C@H](C)O2)[C@H](C)[C@@H](O[C@@H]2O[C@H](C)C[C@H](N(C)C)[C@H]2O)[C@](C)(O)C[C@@H](C)CN(C)[C@H](C)[C@@H](O)[C@]1(C)O [azithromycin, Azithromycin]
MIC [1, 7]: 2 µg/mL (≈ 2.67 µM)
MIC [1, 8]: > 128 µg/mL
MIC [1, 9]: 1 µg/mL (≈ 1.34 µM)
MIC [1, 10]: > 128 µg/mL
MIC [1, 11]: > 128 µg/mL
MIC [1, 12]: > 128 µg/mL
MIC [1, 13]: > 128 µg/mL
MIC [1, 14]: > 128 µg/mL
MIC [1, 15]: > 128 µg/mL
MIC [1, 16]: > 128 µg/mL
MIC [1, 17]: > 128 µg/mL
MIC [2, 18]: > 128 µg/mL
MIC [2, 19]: 0.25 µg/mL (≈ 0.334 µM)
MIC [2, 20]: > 128 µg/mL
MIC [2, 21]: 0.125 µg/mL (≈ 0.167 µM)
MIC [2, 22]: > 128 µg/mL
MIC [2, 23]: > 128 µg/mL
MIC [2, 24]: 128 µg/mL (≈ 171 µM)
MIC [2, 25]: > 128 µg/mL
MIC [2, 26]: > 128 µg/mL
MIC [2, 27]: 128 µg/mL (≈ 171 µM)
MIC ([3]; Staphylococcus epidermidis): 128 µg/mL (≈ 171 µM)
MIC ([3]; Staphylococcus epidermidis MSSE 12-20): 128 µg/mL (≈ 171 µM)
MIC [3, 28]: 4 µg/mL (≈ 5.34 µM)
MIC [3, 29]: > 128 µg/mL
MIC [3, 30]: 8 µg/mL (≈ 10.7 µM)
MIC [3, 31]: 8 µg/mL (≈ 10.7 µM)
MIC [3, 32]: 64 µg/mL (≈ 85.4 µM)
MIC [3, 33]: 8 µg/mL (≈ 10.7 µM)
MIC [3, 34]: 16 µg/mL (≈ 21.4 µM)
MIC [3, 35]: 16 µg/mL (≈ 21.4 µM)
MIC ([4]; Staphylococcus epidermidis): 0.125 µg/mL (≈ 0.167 µM)
MIC [5, 36]: 4 µg/mL (≈ 5.34 µM)
MIC [5, 37]: > 128 µg/mL
MIC [5, 38]: > 128 µg/mL
MIC [5, 39]: 4 µg/mL (≈ 5.34 µM)
MIC [5, 40]: > 128 µg/mL
MIC [5, 41]: 1 µg/mL (≈ 1.34 µM)
MIC [5, 42]: > 128 µg/mL
MIC [5, 43]: > 128 µg/mL
MIC [5, 44]: > 128 µg/mL
MIC [5, 45]: > 128 µg/mL
MIC [5, 46]: > 128 µg/mL
MIC [5, 47]: > 128 µg/mL

MIC ([1]; Enterococcus faecium 12-7): >128 µg/mL
MIC ([1]; Enterococcus faecium 12-8): >128 µg/mL
MIC ([1]; Enterococcus faecium 12-9): >128 µg/mL
MIC ([1]; Enterococcus faecium 12-10): >128 µg/mL
MIC ([1]; Enterococcus faecium 12-11): >128 µg/mL
MIC ([1]; Enterococcus faecium 12-12): >128 µg/mL
MIC ([1]; Enterococcus faecium 12-13): >128 µg/mL
MIC ([1]; Enterococcus faecium 12-14): >128 µg/mL
MIC ([1]; Enterococcus faecium 12-15): >128 µg/mL
MIC ([1]; Enterococcus faecium 12-16): >128 µg/mL
MIC ([1]; Enterococcus faecium, ATCC33186, Enterococcus faecium ATCC 33186): 16 µg/mL
MIC ([2]; Staphylococcus aureus MSSA 12-11): 4 µg/mL
MIC ([2]; Staphylococcus aureus MSSA 12-13): 4 µg/mL
MIC ([2]; Staphylococcus aureus MSSA 12-14): 2 µg/mL
MIC [2, 21]: 2 µg/mL
MIC ([2]; Staphylococcus aureus MSSA 12-16): 4 µg/mL
MIC ([2]; Staphylococcus aureus MSSA 12-17): 4 µg/mL
MIC [2, 24]: 2 µg/mL
MIC ([2]; Staphylococcus aureus MSSA 12-19): 2 µg/mL
MIC ([2]; Staphylococcus aureus MSSA 12-20): 2 µg/mL
MIC [2, 27]: 4 µg/mL
MIC ([3]; Staphylococcus epidermidis, Staphylococcus epidermidis MSSE 12-11): 1 µg/mL
MIC ([3]; Staphylococcus epidermidis, Staphylococcus epidermidis MSSE 12-12): 1 µg/mL
MIC ([3]; Staphylococcus epidermidis, Staphylococcus epidermidis MSSE 12-13): 1 µg/mL
MIC ([3]; Staphylococcus epidermidis, Staphylococcus epidermidis MSSE 12-14): 16 µg/mL
MIC ([3]; Staphylococcus epidermidis, Staphylococcus epidermidis MSSE 12-15): 16 µg/mL
MIC ([3]; Staphylococcus epidermidis, Staphylococcus epidermidis MSSE 12-16): 0.25 µg/mL
MIC ([3]; Staphylococcus epidermidis, Staphylococcus epidermidis MSSE 12-17): 2 µg/mL
MIC ([3]; Staphylococcus epidermidis, Staphylococcus epidermidis MSSE 12-18): 1 µg/mL
MIC ([3]; Staphylococcus epidermidis, Staphylococcus epidermidis MSSE 12-19): 1 µg/mL
MIC ([3]; Staphylococcus epidermidis, Staphylococcus epidermidis MSSE 12-20): 2 µg/mL
MIC ([4]; Staphylococcus epidermidis): 1 µg/mL
MIC ([5]; Enterococcus faecalis 12-11): >128 µg/mL
MIC ([5]; Enterococcus faecalis 12-13): >128 µg/mL
MIC ([5]; Enterococcus faecalis, ATCC29212, Enterococcus faecalis ATCC 29212): 16 µg/mL
MIC ([5]; Enterococcus faecalis, ATCC51299, Enterococcus faecalis (high endurance) ATCC 51299): 32 µg/mL
MIC ([5]; Enterococcus faecalis, Enterococcus faecalis 12-12): 4 µg/mL
MIC ([5]; Enterococcus faecalis, Enterococcus faecalis 12-14): 8 µg/mL
MIC ([5]; Enterococcus faecalis, Enterococcus faecalis 12-17): 32 µg/mL
MIC ([5]; Enterococcus faecalis, Enterococcus faecalis 12-18): 16 µg/mL
MIC ([5]; Enterococcus faecalis, Enterococcus faecalis 12-19): 16 µg/mL
MIC ([5]; Enterococcus faecalis, Enterococcus faecalis 12-20): 16 µg/mL
MIC ([5]; Enterococcus faecalis, Enterococcus faecalis 12-21): 16 µg/mL
MIC ([5]; Enterococcus faecalis, Enterococcus faecalis 12-22): 32 µg/mL
SMILES: CO/N=C(\C(=O)N[C@@H]1C(=O)N2C(C(=O)[O-])=C(C[N+]3(C)CCCC3)CS[C@H]12)c1csc(N)n1 [cefepime, Cefepime hydrochloride]

MIC [1, 7]: 2 µg/mL
MIC [1, 8]: 128 µg/mL
MIC [1, 9]: > 128 µg/mL
MIC [1, 10]: 128 µg/mL
MIC [1, 11]: > 128 µg/mL
MIC [1, 12]: 128 µg/mL
MIC [1, 13]: > 128 µg/mL
MIC [1, 14]: > 128 µg/mL
MIC [1, 15]: > 128 µg/mL
MIC [1, 16]: 128 µg/mL
MIC [1, 17]: 128 µg/mL
MIC [2, 18]: 0.5 µg/mL
MIC [2, 19]: 0.5 µg/mL
MIC [2, 20]: 0.5 µg/mL
MIC ([2]; Staphylococcus aureus MSSA 12-15, read-out: MIC): 0.25 µg/mL
MIC [2, 22]: 0.5 µg/mL
MIC [2, 23]: 0.125 µg/mL
MIC ([2]; Staphylococcus aureus MSSA 12-18, read-out: MIC): 0.25 µg/mL
MIC [2, 25]: 0.25 µg/mL
MIC [2, 26]: 0.5 µg/mL
MIC ([2]; Staphylococcus aureus MSSA 12-21, read-out: MIC): 0.25 µg/mL
MIC ([3]; Staphylococcus epidermidis, Staphylococcus epidermidis MSSE 12-11, read-out: MIC): 0.03 µg/mL
MIC [3, 28]: 0.06 µg/mL
MIC [3, 29]: 0.5 µg/mL
MIC [3, 30]: 8 µg/mL
MIC [3, 31]: 8 µg/mL
MIC [3, 32]: 0.06 µg/mL
MIC [3, 33]: 0.03 µg/mL
MIC [3, 34]: 0.06 µg/mL
MIC [3, 35]: 0.06 µg/mL
MIC ([3]; Staphylococcus epidermidis, Staphylococcus epidermidis MSSE 12-20, read-out: MIC): 0.03 µg/mL
MIC ([4]; Staphylococcus epidermidis ATCC 12228, read-out: MIC): 0.5 µg/mL
MIC ([6]; ATCC49619, Streptococcus pneumonia ATCC 49619): 0.2 µg/mL
MIC ([6]; Streptococcus pneumonia 12-6): 0.05 µg/mL
MIC ([6]; Streptococcus pneumonia 12-7): 0.1 µg/mL
MIC ([6]; Streptococcus pneumonia 12-8): 0.1 µg/mL
MIC ([6]; Streptococcus pneumonia 12-9): 0.1 µg/mL
MIC ([6]; Streptococcus pneumonia 12-10): 0.2 µg/mL
MIC ([6]; Streptococcus pneumoniae 12-1): 0.1 µg/mL
MIC ([6]; Streptococcus pneumoniae 12-2): 0.2 µg/mL
MIC ([6]; Streptococcus pneumoniae 12-3): 0.1 µg/mL
MIC ([6]; Streptococcus pneumoniae 12-4): 0.4 µg/mL
MIC ([6]; Streptococcus pneumoniae 12-5): 0.05 µg/mL
MIC [5, 36]: 1 µg/mL
MIC [5, 37]: 1 µg/mL
MIC [5, 38]: > 128 µg/mL
MIC [5, 39]: 1 µg/mL
MIC [5, 40]: 32 µg/mL
MIC [5, 41]: 1 µg/mL
MIC [5, 42]: 2 µg/mL
MIC [5, 43]: 2 µg/mL
MIC [5, 44]: 2 µg/mL
MIC [5, 45]: 2 µg/mL
MIC [5, 46]: 2 µg/mL
MIC [5, 47]: 1 µg/mL
SMILES: CC1(C)S[C@@H]2[C@H](NC(=O)Cc3ccccc3)C(=O)N2[C@H]1C(=O)O [penicillin, Benzylpenicillin sodium]
